The source made the active and inactive calls.
Assays:
[1] = target: E3 ubiquitin-protein ligase Mdm2 (Homo sapiens, UniProt Q00987); test: enhancers of MDM2-luciferase reporter signal, concentration-effect titration, project on inhibitors of MDM2 ubiquitin ligase, cellular assay, luminescent readout, 384-well plate format (AID 1394); format: functional;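 further: MDM2 E3 inhibitors raise luminescence so EC50 is for signal enhancement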
Fibrinogen beta chain [2] = target: T1, Fibrinogen beta chain (Homo sapiens, UniProt P02675); test: Fluorescence polarization-based biochemical high throughput dose response assay to identify inhibitors that disrupt the binding of a cyclic peptide (Tn7) to the fibrin proteolytic product D-Dimer and fragment E complex [DD(E )].
T1 sequence (P02675 whole entry): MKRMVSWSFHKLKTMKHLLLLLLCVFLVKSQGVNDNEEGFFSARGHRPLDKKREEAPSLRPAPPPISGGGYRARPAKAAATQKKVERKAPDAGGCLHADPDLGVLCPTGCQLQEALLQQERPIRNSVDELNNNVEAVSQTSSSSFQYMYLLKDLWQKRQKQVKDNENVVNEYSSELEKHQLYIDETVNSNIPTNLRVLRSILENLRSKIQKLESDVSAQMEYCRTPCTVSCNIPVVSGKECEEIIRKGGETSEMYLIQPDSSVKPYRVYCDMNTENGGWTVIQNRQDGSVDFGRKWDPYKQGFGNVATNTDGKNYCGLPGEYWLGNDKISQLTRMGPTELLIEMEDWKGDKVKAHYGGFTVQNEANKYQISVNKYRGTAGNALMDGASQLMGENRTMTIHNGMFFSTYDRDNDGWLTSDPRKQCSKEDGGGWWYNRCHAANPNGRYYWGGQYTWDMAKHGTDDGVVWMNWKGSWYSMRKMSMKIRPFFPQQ

Fibrinogen beta chain [3] = target: T1, Fibrinogen beta chain; test: Fluorescence polarization-based biochemical high throughput dose response assay to identify inhibitors that disrupt the binding of a cyclic peptide (Tn6) to the fibrin proteolytic product D-Dimer and fragment E complex [DD(E )].
Protein skinhead-1 = target: T2, Protein skinhead-1 (Caenorhabditis elegans, UniProt P34707); format: functional
T2 sequence (P34707 whole entry): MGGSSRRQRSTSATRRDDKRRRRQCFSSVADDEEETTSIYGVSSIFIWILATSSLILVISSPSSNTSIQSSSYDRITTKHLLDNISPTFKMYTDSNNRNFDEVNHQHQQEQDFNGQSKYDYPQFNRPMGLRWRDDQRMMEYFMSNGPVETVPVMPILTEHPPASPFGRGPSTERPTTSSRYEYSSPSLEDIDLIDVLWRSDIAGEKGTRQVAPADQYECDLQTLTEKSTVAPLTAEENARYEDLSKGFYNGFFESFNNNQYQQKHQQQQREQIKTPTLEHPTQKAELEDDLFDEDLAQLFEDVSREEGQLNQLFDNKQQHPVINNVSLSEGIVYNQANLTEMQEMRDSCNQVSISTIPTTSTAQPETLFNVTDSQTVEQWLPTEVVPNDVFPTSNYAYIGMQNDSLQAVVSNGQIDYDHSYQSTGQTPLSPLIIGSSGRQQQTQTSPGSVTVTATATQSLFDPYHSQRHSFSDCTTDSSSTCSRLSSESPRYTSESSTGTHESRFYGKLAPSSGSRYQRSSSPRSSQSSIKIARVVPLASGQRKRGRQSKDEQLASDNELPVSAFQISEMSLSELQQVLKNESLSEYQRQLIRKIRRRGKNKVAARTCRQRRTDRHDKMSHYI

[4] = target: T3, Long-chain-fatty-acid--AMP ligase FadD28 (Mycobacterium tuberculosis, UniProt P9WQ59); test: Fluorescence polarization aasay to screen for inhibitors that compete for the binding of FadD28 to a bisubstrate Measured in Biochemical System Using Plate Reader - 2147-01_Inhibitor_Dose_CherryPick_Activity.; format: functional, Mycobacterium tuberculosis H37Rv
T3 sequence (P9WQ59 whole entry): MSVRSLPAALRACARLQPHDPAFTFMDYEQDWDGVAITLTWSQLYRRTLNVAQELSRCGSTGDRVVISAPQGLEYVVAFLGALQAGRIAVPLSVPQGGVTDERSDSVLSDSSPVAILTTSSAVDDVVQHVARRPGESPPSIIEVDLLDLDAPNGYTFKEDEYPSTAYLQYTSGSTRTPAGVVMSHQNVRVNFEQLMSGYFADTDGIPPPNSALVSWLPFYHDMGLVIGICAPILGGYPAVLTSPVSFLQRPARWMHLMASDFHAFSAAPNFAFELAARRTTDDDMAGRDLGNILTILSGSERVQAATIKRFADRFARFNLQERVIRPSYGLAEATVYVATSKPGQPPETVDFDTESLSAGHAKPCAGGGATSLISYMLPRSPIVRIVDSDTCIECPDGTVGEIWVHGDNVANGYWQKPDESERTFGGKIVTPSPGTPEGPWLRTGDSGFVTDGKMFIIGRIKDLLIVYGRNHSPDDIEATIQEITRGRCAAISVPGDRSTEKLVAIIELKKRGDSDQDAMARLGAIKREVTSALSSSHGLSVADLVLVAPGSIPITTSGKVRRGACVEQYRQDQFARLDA

Kallikrein-7 = Kallikrein-7 (Homo sapiens, UniProt P49862); test: Fluorescence Intensity-based biochemical primary high throughput dose response assay to identify activators of kallikrein-7 (K7) zymogen.
[5] = Luminescent dose response cell-based high throughput screening assay for inhibitors of the Janus kinase 2 mutant JAK2V617F. [Related pubchem assays: 1446 (Primary screen.), 1521 (Confirmation assay.), 1486 (Counter screen.)]; format: functional
[6] = inhibitors of intracellular T. cruzi replication, confirmation, NIH3T3 host cells, beta-gal luminescence (AID 2044); format: functional, cell-based;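 further: intracellular parasites grown in NIH/3T3 mouse fibroblasts as host cells; luminescent beta-galactosidase reporter signal from transgenic T. cruzi replicating inside host cells; inhibitors lower the luminescence signal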
[7] = cytotoxicity toward NIH3T3 fibroblasts, dose response, counter-screen, cell-based, ATP luminescence, mouse fibroblasts (AID 2010); format: functional;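 further: cells exposed to compound for about 90 hours before reading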
[8] = M. tuberculosis growth inhibition, HTS (AID 449762); format: functional
Large T antigen = Large T antigen (Simian virus 40, UniProt P03070); format: functional, Betapolyomavirus macacae;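 further: Confirmatory-stage PubChem screen for compounds that inhibit SV40 T antigen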
[9] = target: T4, RNA-binding protein pos-1 (Caenorhabditis elegans, UniProt G5EF15); test: inhibitors of POS-1/mex-3 RNA binding, dose response, biochemical, fluorescence polarization (AID 1964);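 further: purified POS-1 fused to maltose binding protein made in E. coli; potency of compounds blocking POS-1 binding to fluorescent RNA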
T4 sequence (G5EF15 whole entry): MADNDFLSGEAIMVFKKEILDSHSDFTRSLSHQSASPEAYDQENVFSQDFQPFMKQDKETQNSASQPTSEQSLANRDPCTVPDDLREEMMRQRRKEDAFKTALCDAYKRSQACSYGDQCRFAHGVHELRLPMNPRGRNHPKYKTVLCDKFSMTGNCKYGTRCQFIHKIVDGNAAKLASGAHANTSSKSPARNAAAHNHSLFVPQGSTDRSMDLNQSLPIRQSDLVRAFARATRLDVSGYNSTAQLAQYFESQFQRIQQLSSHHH

[10] = target: T5, Zinc finger protein mex-5 (Caenorhabditis elegans, UniProt Q9XUB2); test: MEX-5/TCR-2 RNA interaction inhibitors, dose response, biochemical, C. elegans, fluorescence polarization (AID 1960)
T5 sequence (Q9XUB2 whole entry): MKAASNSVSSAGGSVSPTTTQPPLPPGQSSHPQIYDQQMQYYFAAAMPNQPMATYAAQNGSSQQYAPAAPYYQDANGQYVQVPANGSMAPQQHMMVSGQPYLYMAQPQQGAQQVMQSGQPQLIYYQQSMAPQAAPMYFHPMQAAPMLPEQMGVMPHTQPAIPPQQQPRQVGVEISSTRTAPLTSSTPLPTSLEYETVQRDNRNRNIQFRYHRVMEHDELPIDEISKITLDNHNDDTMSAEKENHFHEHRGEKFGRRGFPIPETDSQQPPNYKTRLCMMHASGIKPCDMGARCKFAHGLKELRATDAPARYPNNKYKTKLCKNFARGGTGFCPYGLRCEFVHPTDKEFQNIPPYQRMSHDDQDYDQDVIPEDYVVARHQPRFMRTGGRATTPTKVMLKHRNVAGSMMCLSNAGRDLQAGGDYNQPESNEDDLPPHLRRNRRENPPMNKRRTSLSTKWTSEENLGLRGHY

[11] = THP-1 cell cytotoxicity, dose response, cytotoxicity control for Vif-APOBEC3G degradation inhibitor project, THP-1 cells (AID 1117359); format: functional; conditions: Human immunodeficiency virus 1, THP-1
[12] = target: T6, Histone-lysine N-methyltransferase NSD2 (Homo sapiens, UniProt O96028); format: biochemical
T6 sequence (O96028 whole entry): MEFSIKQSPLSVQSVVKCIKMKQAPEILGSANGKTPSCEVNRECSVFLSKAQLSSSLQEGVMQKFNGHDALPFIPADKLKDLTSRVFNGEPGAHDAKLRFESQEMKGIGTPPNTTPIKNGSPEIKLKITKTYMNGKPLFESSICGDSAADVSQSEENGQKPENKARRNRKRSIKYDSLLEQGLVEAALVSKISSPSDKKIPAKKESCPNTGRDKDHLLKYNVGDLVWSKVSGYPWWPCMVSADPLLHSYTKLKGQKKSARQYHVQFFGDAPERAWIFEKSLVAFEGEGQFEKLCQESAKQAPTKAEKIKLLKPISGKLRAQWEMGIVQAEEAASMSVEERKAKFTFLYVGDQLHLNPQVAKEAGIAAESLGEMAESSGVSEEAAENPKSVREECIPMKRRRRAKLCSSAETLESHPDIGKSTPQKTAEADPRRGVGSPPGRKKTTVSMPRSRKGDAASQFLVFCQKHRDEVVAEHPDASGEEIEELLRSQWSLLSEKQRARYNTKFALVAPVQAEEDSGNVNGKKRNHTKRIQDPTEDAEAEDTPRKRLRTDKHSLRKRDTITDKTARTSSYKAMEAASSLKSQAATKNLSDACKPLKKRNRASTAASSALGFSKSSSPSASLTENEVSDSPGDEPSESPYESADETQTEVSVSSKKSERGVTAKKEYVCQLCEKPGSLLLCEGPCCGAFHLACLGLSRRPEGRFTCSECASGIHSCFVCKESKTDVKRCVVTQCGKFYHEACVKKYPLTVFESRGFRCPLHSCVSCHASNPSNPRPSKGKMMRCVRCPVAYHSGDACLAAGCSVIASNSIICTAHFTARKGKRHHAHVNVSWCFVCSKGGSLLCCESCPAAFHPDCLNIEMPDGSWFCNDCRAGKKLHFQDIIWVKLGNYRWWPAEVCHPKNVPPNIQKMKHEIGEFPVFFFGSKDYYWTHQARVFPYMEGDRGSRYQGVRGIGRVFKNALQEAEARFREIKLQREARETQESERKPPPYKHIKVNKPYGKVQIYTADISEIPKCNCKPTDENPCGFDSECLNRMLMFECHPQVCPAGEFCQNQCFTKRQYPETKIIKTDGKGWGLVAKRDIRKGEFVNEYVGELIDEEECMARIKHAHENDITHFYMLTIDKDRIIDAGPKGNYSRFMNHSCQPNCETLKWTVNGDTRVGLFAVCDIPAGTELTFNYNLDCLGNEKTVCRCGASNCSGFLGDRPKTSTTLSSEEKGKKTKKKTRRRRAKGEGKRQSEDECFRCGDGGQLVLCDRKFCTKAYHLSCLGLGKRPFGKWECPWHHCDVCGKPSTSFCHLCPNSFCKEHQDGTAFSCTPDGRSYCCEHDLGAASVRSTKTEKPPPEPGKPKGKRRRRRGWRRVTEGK

[13] = target: T7, Mannose-6-phosphate isomerase (Homo sapiens, UniProt P34949); test: human PMI inhibitors, high substrate, primary screen, biochemical, fluorescence intensity, high mannose 6-phosphate (AID 1220)
T7 sequence (P34949 whole entry): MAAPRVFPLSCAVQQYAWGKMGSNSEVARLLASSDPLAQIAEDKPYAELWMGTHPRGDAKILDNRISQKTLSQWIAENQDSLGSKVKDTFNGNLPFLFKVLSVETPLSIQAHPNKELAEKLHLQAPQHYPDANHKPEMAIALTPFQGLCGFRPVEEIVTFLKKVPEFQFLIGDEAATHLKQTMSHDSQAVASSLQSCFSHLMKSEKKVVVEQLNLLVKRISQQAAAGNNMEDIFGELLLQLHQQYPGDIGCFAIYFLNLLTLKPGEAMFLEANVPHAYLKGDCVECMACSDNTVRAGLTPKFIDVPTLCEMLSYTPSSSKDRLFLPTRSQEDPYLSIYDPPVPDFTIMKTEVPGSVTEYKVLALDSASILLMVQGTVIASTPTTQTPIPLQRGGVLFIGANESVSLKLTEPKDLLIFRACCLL

[14] = inhibitors of Vif binding to APOBEC3G peptide, primary screen, biochemical, TR-FRET, GST-Vif 1-94, biotin-A3G peptide, dose response retest (AID 1117319); format: functional;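 further: TR-FRET signal of purified GST-Vif binding a biotinylated A3G peptide; inhibitors lower the FRET signal by blocking Vif and A3G binding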
[15] = P. falciparum Dd2 growth inhibitors, dose response, SYBR Green, dry powder samples, set 9 (AID 1159568); format: functional, cell-based

E3 ubiquitin-protein ligase Mdm2, sequence (Q00987 whole entry, the tested form may be a part): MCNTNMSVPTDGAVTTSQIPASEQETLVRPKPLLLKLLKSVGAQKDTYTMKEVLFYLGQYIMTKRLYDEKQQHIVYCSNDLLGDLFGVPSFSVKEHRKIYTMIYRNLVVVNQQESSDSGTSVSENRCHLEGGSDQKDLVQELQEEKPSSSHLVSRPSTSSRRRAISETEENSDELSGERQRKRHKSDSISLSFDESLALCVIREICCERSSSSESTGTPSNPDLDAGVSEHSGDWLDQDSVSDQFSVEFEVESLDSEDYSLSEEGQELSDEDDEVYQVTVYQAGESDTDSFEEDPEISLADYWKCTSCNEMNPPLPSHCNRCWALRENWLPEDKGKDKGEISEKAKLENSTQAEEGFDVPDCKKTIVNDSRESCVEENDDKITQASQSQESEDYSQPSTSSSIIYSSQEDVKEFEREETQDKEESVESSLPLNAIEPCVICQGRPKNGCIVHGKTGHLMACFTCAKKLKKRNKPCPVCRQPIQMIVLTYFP
Kallikrein-7, sequence (P49862 whole entry): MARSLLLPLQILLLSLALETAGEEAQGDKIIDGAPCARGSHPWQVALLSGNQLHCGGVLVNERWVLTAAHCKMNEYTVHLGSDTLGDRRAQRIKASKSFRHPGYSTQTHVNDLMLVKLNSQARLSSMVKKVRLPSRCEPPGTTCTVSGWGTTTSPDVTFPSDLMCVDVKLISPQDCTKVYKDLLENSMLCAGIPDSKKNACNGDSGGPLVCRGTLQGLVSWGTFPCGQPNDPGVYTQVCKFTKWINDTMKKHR
Large T antigen, sequence (P03070 whole entry, the tested form may be a part): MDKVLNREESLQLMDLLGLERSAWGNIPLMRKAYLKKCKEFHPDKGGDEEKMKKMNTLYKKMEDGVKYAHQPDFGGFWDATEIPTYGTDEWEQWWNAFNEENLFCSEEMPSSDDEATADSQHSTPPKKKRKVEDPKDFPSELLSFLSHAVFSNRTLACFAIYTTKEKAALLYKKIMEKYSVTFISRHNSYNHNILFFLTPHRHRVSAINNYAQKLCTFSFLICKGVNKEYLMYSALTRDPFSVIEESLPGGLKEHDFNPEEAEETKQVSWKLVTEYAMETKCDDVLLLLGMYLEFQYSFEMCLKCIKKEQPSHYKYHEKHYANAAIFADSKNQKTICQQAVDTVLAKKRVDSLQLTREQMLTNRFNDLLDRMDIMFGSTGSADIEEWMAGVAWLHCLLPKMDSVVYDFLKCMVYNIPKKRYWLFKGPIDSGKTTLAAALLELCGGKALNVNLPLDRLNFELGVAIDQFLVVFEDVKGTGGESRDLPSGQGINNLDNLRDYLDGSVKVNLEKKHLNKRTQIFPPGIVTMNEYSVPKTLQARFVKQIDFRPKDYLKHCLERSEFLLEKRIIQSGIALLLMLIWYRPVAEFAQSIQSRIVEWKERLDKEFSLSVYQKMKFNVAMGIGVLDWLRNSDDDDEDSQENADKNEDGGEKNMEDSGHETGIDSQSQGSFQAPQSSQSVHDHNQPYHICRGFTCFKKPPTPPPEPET

SMILES: COc1ccc(S(=O)(=O)NN(C)c2ncc(C(F)(F)F)cc2Cl)cc1
- EC50 [1]: 0.38 µM (not active)

SMILES: CCn1c(CSc2n[nH]c(N)n2)nc2cc(C(=O)O)ccc21
- IC50 (Fibrinogen beta chain [2]): > 83.3 µM (inactive)
- IC50 (Fibrinogen beta chain [3]): 8.92 µM (active)
- IC50 (Protein skinhead-1): > 100 µM (inactive)
- AC50 [4]: 79 µM (active)

SMILES: O=C(Nc1cccc2c1[nH]c1ccccc12)C(F)(F)F
- EC50 (Kallikrein-7): 31.8 µM (inactive)
- IC50 [5]: 2.48 µM (active)

SMILES: CN(c1ccccc1)S(=O)(=O)c1ccc(Cl)c(C(=O)Nc2ccc(-c3nc4ccccc4[nH]3)cc2)c1
- IC50 (Fibrinogen beta chain [2]): > 83.3 µM (inactive)
- EC50 [6]: 1.68 µM (active)
- IC50 (Fibrinogen beta chain [3]): > 83.3 µM (inactive)
- EC50 [7]: > 30 µM (not active)

SMILES: COc1ccccc1N1C(=O)NC(=O)/C(=C/c2ccc([N+](=O)[O-])s2)C1=O
- IC50 [8]: > 100 µM (active)
- IC50 (Large T antigen): > 100 µM (active)
- EC50 [9]: 44.1 µM (active)
- EC50 [10]: 23 µM (active)

SMILES: CC1C(=O)N2CCCc3cc(NC(=O)C(=O)NCc4cccnc4)cc1c32 (configuration not stated)
- CC50 [11]: > 40 µM (active)

SMILES: COc1ccccc1N=C(S)Nc1cccc2cnccc12
- AC50 [12]: 10.1 µM (active)
- IC50 [13]: > 50 µM (not active)

SMILES: CC(C)Cc1ccc(C(C)C(=N)N)cc1 (configuration not stated)
- CC50 [11]: > 40 µM (active)
- IC50 [14]: > 100 µM (active)

SMILES: CN(C)C(=O)c1ccc(-c2ccc([C@@H]3[C@H]4CN(C(=O)CC5CC5)CC(=O)N4[C@H]3CO)cc2)cc1
- AC50 [15]: 14.4 µM (active)

SMILES: Cc1ccccc1-c1ccc2c(c1)O[C@H](CN(C)C(=O)Nc1ccc(C(F)(F)F)cc1)[C@@H](C)CN([C@@H](C)CO)S2(=O)=O
- AC50 [15]: 5.32 µM (active)

Source: ChEMBL document CHEMBL1201862, “PubChem BioAssay data set” (2004)
